Publication PMC6327999, “Hydroxyl-substituted double Schiff-base condensed 4-piperidone/cyclohexanones as potential anticancer agents with biological evaluation” (Journal of Enzyme Inhibition and Medicinal Chemistry, 2019)
Where two headings read alike, the source gives them in different places.

Assays:
[1] = test system: human liver hepatocellular carcinoma cell line (Hepg2); assay: Cytotoxicity, MTT assay, HePG2; format: cell-based
Text: Compounds 2a–d, 3a–e, 4a–e, 5a–d, and 6a–c were screened against human neoplastic cell lines such as human lung carcinoma cells (A549), human gastric adenocarcinoma cells (SGC7901), human cervical carcinoma cells (HeLa), human liver hepatocellular carcinoma cell line (Hepg2), human chronic myelogenous leukemia cell line (K562), human acute mononuclear granulocyte leukemia (THP-1), human normal heptical cell line (LO2) (Table 1) using modified MTT assay (3-(4,5-dimethyl-2-thiazolyl)-2,5-diphenyl-2-H-tetrazolium bromide, MTT, Dojindo Laboratories, Tokyo, Japan). All cell lines were maintained at 37 °C in a humidified 5% CO2 and 95% air atmosphere. The HePG2 cell lines were cultured in DMEM containing 10% fetal bovine serum. Other cell lines were grown in medium 1640 and supplemented with 10% fetal bovine serum. […] Controls were prepared with 0.1% DMSO (v/v) only. The cells were seeded in a 96-well plate in 200 µL medium per well at a density of 1 × 10^4 cells/well for 24 hours. The cells were treated with serial concentrations of compound and incubated for 24 hours. Cells with only culture media were used as control. After the media was removed, 20 µL of MTT (5 mg/mL) was added then the plates were incubated for 4 hours at 37 °C in cell culture incubator. The MTT containing media were removed and then 150 µL of DMSO was added to dissolve the dark-blue formazan crystals. The optical density (OD) was measured by a multi-well plate reader (TECAN, Männedorf, Switzerland) at 570 nm. The results are expressed as a decrease in the cell viability (%) in comparison to untreated controls. The concentration of each compound was examined in triplicate, and the IC50 values are expressed in Table 1. The concentrations of the compounds were 50, 20, 10, 5, 2.5, 1, 0.5, 0.1, 0.05 and 0.01 µg/mL. […] The concentrations of curcumin used were 100, 50, 25, 12.5, 6.25, 3.125, 1, 0.5 and 0.1 µg/mL.

[2] = test system: human acute mononuclear granulocyte leukemia (THP-1); assay: Cytotoxicity, MTT assay, THP-1; format: cell-based
Text: (§1) Compounds 2a–d, 3a–e, 4a–e, 5a–d, and 6a–c were screened against human neoplastic cell lines such as human lung carcinoma cells (A549), human gastric adenocarcinoma cells (SGC7901), human cervical carcinoma cells (HeLa), human liver hepatocellular carcinoma cell line (Hepg2), human chronic myelogenous leukemia cell line (K562), human acute mononuclear granulocyte leukemia (THP-1), human normal heptical cell line (LO2) (Table 1) using modified MTT assay (3-(4,5-dimethyl-2-thiazolyl)-2,5-diphenyl-2-H-tetrazolium bromide, MTT, Dojindo Laboratories, Tokyo, Japan). All cell lines were maintained at 37 °C in a humidified 5% CO2 and 95% air atmosphere. The HePG2 cell lines were cultured in DMEM containing 10% fetal bovine serum. Other cell lines were grown in medium 1640 and supplemented with 10% fetal bovine serum. […] Controls were prepared with 0.1% DMSO (v/v) only. The cells were seeded in a 96-well plate in 200 µL medium per well at a density of 1 × 10^4 cells/well for 24 hours. The cells were treated with serial concentrations of compound and incubated for 24 hours. Cells with only culture media were used as control. After the media was removed, 20 µL of MTT (5 mg/mL) was added then the plates were incubated for 4 hours at 37 °C in cell culture incubator. The MTT containing media were removed and then 150 µL of DMSO was added to dissolve the dark-blue formazan crystals. The optical density (OD) was measured by a multi-well plate reader (TECAN, Männedorf, Switzerland) at 570 nm. The results are expressed as a decrease in the cell viability (%) in comparison to untreated controls. The concentration of each compound was examined in triplicate, and the IC50 values are expressed in Table 1. The concentrations of the compounds were 50, 20, 10, 5, 2.5, 1, 0.5, 0.1, 0.05 and 0.01 µg/mL. Doxorubicin (DOX) and Curcumin were used as positive controls. […] The concentrations of curcumin used were 100, 50, 25, 12.5, 6.25, 3.125, 1, 0.5 and 0.1 µg/mL.

[3] = test system: human chronic myelogenous leukemia cell line (K562); assay: Cytotoxicity, MTT assay, K562; format: cell-based
Text: as §1

[4] = test system: human normal heptical cell line (LO2); assay: Cytotoxicity, MTT assay, non-malignant LO2; format: cell-based; conditions: 24 hours, non-malignant cells
Text: as §1

[5] = test system: human lung carcinoma cells (A549); assay: Cytotoxicity, MTT assay, A549; format: cell-based
Text: as §1

[6] = test system: human gastric adenocarcinoma cells (SGC7901); assay: Cytotoxicity, MTT assay, SGC7901; format: cell-based
Text: as §1

HepG2 xenografts = assay: In vivo antitumor efficacy, HepG2-bearing nude mice; set-up: species or system Balb/c nude mice
Procedure: (§2) The antitumor effect was investigated on the seven-week-old female Balb/c nude mice (n = 30) weighing 19–21 grams (Shanghai Laboratory Animal Center). Briefly, 0.2 mL HepG2 cells (1 × 10^7/mL) were inoculated subcutaneously into the alar left of each mouse. On the third day after the inoculation, the HepG2-bearing mice were randomly divided into five groups (n = 6/group) and administrated the according drug or solvent. […] The control group was administrated of saline as negative control. The body weight and tumor volumes calculation were recorded from the day of treatment, and the tumor volumes were calculated using the following equation: tumor volume = length × (width)^2 × π/6. Animal experiments were reviewed and approved by the Binzhou Medical University Experimental Animal Committee.

[7] = test system: human carcinoma cell lines A549, SGC7901, HePG2, HeLa, K562, THP-1; assay: Cytotoxicity, MTT assay, panel of human carcinoma cell lines (average / overall); format: cell-based; conditions: for IC50: Homo sapiens
Text: as §1
The cytotoxicity activities against human carcinoma cell lines A549, SGC7901, HePG2, HeLa, K562, THP-1 and cytotoxicity toward LO2 cell lines were evaluated by MTT method. DOX and curcumin were used as positive control. The selectivity index (SI) is the quotient of the IC50 values towards nonmalignant LO2 cells. […] Especially for 4a–e, 5a–d, and 6a–c, this ratio can reach about 92%.

[8] = test system: human cervical carcinoma cells (HeLa); assay: Cytotoxicity, MTT assay, HeLa; format: cell-based
Text: as §1

[9] = Body weight of HepG2-bearing mice; format: in vivo, Balb/c nude mice; conditions: measured every 2 days during treatment
Procedure: as §2

[10] = quotient of the IC50 values towards nonmalignant LO2 cells

O=C1/C(=C/c2cc(/N=C/c3ccc(O)c(O)c3O)ccc2F)CNC/C1=C\c1cc(/N=C/c2ccc(O)c(O)c2O)ccc1F [5c]
IC50 ([1]; Homo sapiens, HepG2, MTT, 24 hours): 0.6 ± 0.1 µM
HePG2 SI [1, 10]: 24.5
IC50 ([2]; Homo sapiens, THP-1, MTT, 24 hours): 0.9 ± 0.2 µM
THP-1 SI [2, 10]: 17.0
IC50 ([3]; Homo sapiens, K562, MTT, 24 hours): 1.3 ± 0.1 µM
K562 SI [3, 10]: 11.8
IC50 [4]: 15.2 ± 0.6 µM
IC50 ([5]; Homo sapiens, A549, MTT, 24 hours): 1.4 ± 0.2 µM
A549 SI [5, 10]: 10.7
IC50 ([6]; Homo sapiens, SGC-7901, MTT, 24 hours): 1.4 ± 0.1 µM
SGC7901 SI [6, 10]: 11.1
tumor growth inhibition (HepG2 xenografts; 1.0 mg/kg/d i.p. for 20 days): light inhibitory activity
tumor growth inhibition (HepG2 xenografts; 10 mg/kg/d i.p. for 20 days): significantly inhibited the tumor growth
IC50 ([7]; average over the six carcinoma cell lines, read-out: Ave IC50): 1.2 µM
IC50 ([7]; statement for all experimental carcinoma cell lines, read-out: IC50 values against human carcinoma cell lines): < 2 µM
Ave SI ([7]; average over the six carcinoma cell lines): 14.1
IC50 ([8]; Homo sapiens, HeLa, MTT, 24 hours): 1.5 ± 0.3 µM
HeLa SI [8, 10]: 9.8
body weight change [9]: no apparent change in body weight
